The format of data set [1] is physicochemical. Here is the method: It should be noted that other secondary emulsifiers (e.g., dimyristylphosphatidylglycerol (DMPG), Solutol HS15, and Tween 80) were tested at refrigerated temperature for droplet size stability improvement.
The conditions of data set [2]: adult patients, cited from earlier work; for Cmax: read-out: Plasma Cmax.

Where two headings read alike, the source gives them in different places.

As to `CCCCCCCCCCCCCC(=O)OCC(COP(=O)(O)OCC(O)CO)OC(=O)CCCCCCCCCCCCC` (centres unmarked) [DMPG, dimyristylphosphatidylglycerol], the “effect of secondary emulsifier on droplet size stability of the emulsion” value in data set [1] was “resulted in a viscous emulsion that would be difficult to draw a syringe”.
Usually Cmax stands for the peak of the concentration-time curve. The clearance is a measure of how efficiently the substance is removed, as volume per time. In the case of `C=CCNC1=C2C[C@@H](C)C[C@H](OC)[C@H](O)[C@@H](C)/C=C(\C)[C@H](OC(N)=O)[C@@H](OC)/C=C\C=C(/C)C(=O)NC(=CC1=O)C2=O` [Formulation 17-AAG, 17-(allylamino)-17-demethoxygeldanamycin], the peak concentration (Cmax) in data set [2] (at 40 mg/m^2) is 1860 ± 660 nM. The Cmax in data set [2] (at 56 mg/m^2) was 3170 ± 1310 nM. Besides, the “maximum tolerated dose (MTD)” value in data set [2] (daily 1-hour infusion for 5 days every three weeks) is reported as 40 mg/m^2. In addition, in data set [2] (mean±SD), the clearance was 41.0 ± 13.5 L/h and the terminal half-life is 2.5 ± 0.5 h.
As to `CCCCCCCC/C=C\CCCCCCCC(=O)O` [oleic acid, cis-9-octadecenoic acid], the “effect of secondary emulsifier on droplet size stability of the emulsion” value in data set [1] is “showed improved stability”.
The same measure, in the same setting: as for Tween 80, the entry is “did not improve the droplet size stability”.

The record behind these values is patent publication US20070129342A1, “Compositions Containing Ansamycin” (priority 2005, published 2007).
